Test system: agr
Experiment: agr YFP transcriptional reporter assay (S. aureus AH1677 with pDB59)
Assay type: cell-based
Settings: Staphylococcus aureus, 24 h, read-out: IC50 in the agr reporter assay
Method: Bacterial strains and culture. All bacteria were grown at 37° C. with 200 rpm shaking unless otherwise specified. S. aureus and P. aeruginosa were grown in BHI medium and LB medium, respectively. S. aureus AH1677 (with an agr-YFP reporter plasmid) and P. aeruginosa PAO1-PGSC (with a plasI-LVAgfp reporter plasmid) were used as QS transcriptional reporters and grown with 10 μg/mL chloramphenicol and 300 μg/mL carbenicillin, respectively. All other strains were grown without supplemental antibiotic. S. aureus RN6390b and P. aeruginosa PAO1-PGSC were used as WT strains in vesicle lysis experiments, while S. aureus RN9222 and P. aeruginosa PAO-JG35 were used as QS mutants. RN9222 was grown without antibiotic as it was not used as a reporter strain (i.e., it served only as QS mutant).
High-throughput screening and follow-up analysis protocols. Test compounds and positive control 1 were delivered in 2.5 nL aliquots of DMSO with an Echo 550 liquid handler (LabCyte Inc.) into black 384-well microtiter plates (Corning). All test compounds were tested at 10 μM; positive control 1 was tested at 250 nM. DMSO was used as a negative control. Overnight cultures (2 mL) of WT S. aureus (RN6390b) were grown at 37° C. with shaking at 200 rpm. These cultures were diluted 1:500 (v/v) in fresh BHI medium, at which point vesicle solutions were added to a final concentration of 1 mM phospholipid (as determined by ^31P NMR analyses). This vesicle-cell mixture was then added to the 384-well microtiter plates with a Multidrop 384 liquid-dispensing robot (Thermo Scientific) for a total volume of 50 μL per well. Plates were incubated statically for ˜24 hr at 37° C., at which point fluorescence (excitation 483, emission 530) and OD600 (absorbance at 600 nm) measurements were made using a CLARIOstarR Plus microtiter plate reader (BMG Labtech) running MARS data analysis software. Scatter plots were generated using the Collaborative Drug Discovery Vault informatics platform. The dose-response experiment using the vesicle lysis assay was performed in a 384-well plate in technical duplicate with compound concentrations of 0.1, 0.25, 0.5, 1, 2.5, 5, 10, and 20 μM. Dose-response curves were generated using variable slope (4 parameter) non-linear regression analysis for compound inhibition using GraphPad Prism software (v. 9). Analysis of the QS modulatory activity of the HTS hits and 6 (savirin) was performed using the S. aureus YFP transcriptional reporter strain. HTS hits were purchased directly from Life Chemicals, Inc. DMSO stock solutions (10 mM) of each compound were prepared and stored at −20° C. Serial dilutions (1:3) were prepared from the stock solutions in DMSO, and 2 μL aliquots of the resulting dilutions were added to the wells of black 96-well microtiter plates (Corning). Overnight cultures of the S. aureus reporter strain (2 mL) were grown at 37° C. with shaking at 200 rpm. Cultures were diluted 1:50 (v/v) into fresh BHI medium, and 198 μL of this diluted culture were added to each well containing compound, for a total volume of 200 μL per well. All plates contained a vehicle control consisting of 2 μL of DMSO and 198 μL of culture and a media control consisting of 200 μL BHI. Plates were incubated for ˜24 hours at 37° C. with shaking at 200 rpm. Fluorescence (excitation 510, emission 544) and OD600 measurements were acquired with a PerkinElmer EnVision microtiter plate reader running Envision Manager software. Background fluorescence from BHI control was subtracted from raw fluorescence reads, OD600 corrected, and finally normalized to vehicle control. Dose-response curves and IC50 values were generated using 3-parameter non-linear regression analysis for compound inhibition using GraphPad Prism software (v. 9). All compounds were tested in technical triplicate with at least 3 biological replicates.

## CC(C)c1ccc(S(=O)(=O)c2nnn3c2nc(O)c2ccccc23)cc1 [Compound 6, savirin]
  IC50: 5.5 µM
